# Results as given in patent US12258328B2, “6-membered heteroaryl-containing aminopyridine compounds as EGFR inhibitors” (YUHAN CORPORATION, priority 2021, dated 2025).
# Like-named read-outs stand apart in the source and are kept apart here.
# Legend:
# EGFR wildtype = EGFR wildtype (Homo sapiens, UniProt P00533); experiment: Biochemical EGFR kinase assay (Lance Ultra TR-FRET), wildtype
# How it was run: (§1)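 Enzyme reactions lasted 1 hour at room temperature with test compounds between 0.003 and 10 μM, followed by 10 mM EDTA quench.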
# EGFR L858R/C797S = EGFR L858R/C797S (Homo sapiens, UniProt P00533, C797S/L858R); experiment: Biochemical EGFR kinase assay (Lance Ultra TR-FRET), double mutant L858R/C797S
# How it was run: as §1
# EGFR L858R/T790M/C797S = EGFR L858R/T790M/C797S (Homo sapiens, UniProt P00533, C797S/L858R/T790M); experiment: Biochemical EGFR kinase assay (Lance Ultra TR-FRET), triple mutant L858R/T790M/C797S
# How it was run: as §1
# EGFR del19/C797S = EGFR del19/C797S (Homo sapiens, UniProt P00533, C797S/DEL746-750); experiment: Biochemical EGFR kinase assay (Lance Ultra TR-FRET), double mutant del19/C797S
# How it was run: as §1
# EGFR del19/T790M/C797S = EGFR del19/T790M/C797S (Homo sapiens, UniProt P00533, C797S/DEL746-750/T790M); experiment: Biochemical EGFR kinase assay (Lance Ultra TR-FRET), triple mutant del19/T790M/C797S
# How it was run: as §1
# [1] = IC50 WT (nM) 100 μM ATP, 100 μM ATP
# [2] = Km ATP, read-out: IC50 WT (nM) Km ATP
# [3] = IC50 L858R/C797S (nM) 100 μM ATP, 100 μM ATP
# [4] = Km ATP, read-out: IC50 L858R/C797S (nM) Km ATP
# [5] = IC50 L858R/T790M/C797S (nM) 100 μM ATP, 100 μM ATP
# [6] = Km ATP, read-out: IC50 L858R/T790M/C797S (nM) Km ATP
# [7] = IC50 del19/C797S (nM) 100 μM ATP, 100 μM ATP
# [8] = Km ATP, read-out: IC50 del19/C797S (nM) Km ATP
# [9] = Km ATP, read-out: IC50 del19/T790M/C797S (nM) Km ATP
# [10] = IC50 del19/T790M/C797S (nM) 100 μM ATP, 100 μM ATP
# Sequence of EGFR del19/C797S (P00533 with tags, fused parts or gaps DEL746-750/C797S): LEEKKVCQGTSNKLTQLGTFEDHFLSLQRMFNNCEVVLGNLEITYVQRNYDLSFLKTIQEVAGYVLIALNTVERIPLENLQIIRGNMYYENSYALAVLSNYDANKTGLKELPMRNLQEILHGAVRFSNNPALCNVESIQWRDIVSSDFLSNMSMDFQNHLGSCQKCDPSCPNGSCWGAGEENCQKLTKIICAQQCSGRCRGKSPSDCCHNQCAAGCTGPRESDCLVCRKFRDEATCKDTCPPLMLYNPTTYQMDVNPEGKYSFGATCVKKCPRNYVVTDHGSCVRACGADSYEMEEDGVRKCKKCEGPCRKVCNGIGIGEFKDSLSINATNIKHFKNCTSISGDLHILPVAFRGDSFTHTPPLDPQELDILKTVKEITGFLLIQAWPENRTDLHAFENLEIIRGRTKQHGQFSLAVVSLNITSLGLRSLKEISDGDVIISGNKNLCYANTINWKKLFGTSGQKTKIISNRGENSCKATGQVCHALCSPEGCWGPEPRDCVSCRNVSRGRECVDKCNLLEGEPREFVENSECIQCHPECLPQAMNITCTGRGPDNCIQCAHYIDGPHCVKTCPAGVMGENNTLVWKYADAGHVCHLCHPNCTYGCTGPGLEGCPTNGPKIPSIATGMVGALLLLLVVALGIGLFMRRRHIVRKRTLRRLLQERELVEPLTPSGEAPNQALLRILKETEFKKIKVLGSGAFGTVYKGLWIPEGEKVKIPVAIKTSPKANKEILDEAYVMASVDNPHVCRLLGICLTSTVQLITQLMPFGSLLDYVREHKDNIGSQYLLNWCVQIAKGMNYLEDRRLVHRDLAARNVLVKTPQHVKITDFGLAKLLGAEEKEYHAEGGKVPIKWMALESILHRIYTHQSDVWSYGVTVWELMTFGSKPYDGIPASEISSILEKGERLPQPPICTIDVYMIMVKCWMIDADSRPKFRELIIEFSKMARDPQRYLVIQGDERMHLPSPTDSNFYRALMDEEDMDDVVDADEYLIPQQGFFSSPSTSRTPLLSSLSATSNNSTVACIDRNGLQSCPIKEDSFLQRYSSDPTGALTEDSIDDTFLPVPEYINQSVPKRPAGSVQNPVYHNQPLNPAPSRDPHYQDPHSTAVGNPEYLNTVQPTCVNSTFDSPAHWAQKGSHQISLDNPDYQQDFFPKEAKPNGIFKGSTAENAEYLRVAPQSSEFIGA
# Sequence of EGFR del19/T790M/C797S (P00533 with tags, fused parts or gaps DEL746-750/T790M/C797S): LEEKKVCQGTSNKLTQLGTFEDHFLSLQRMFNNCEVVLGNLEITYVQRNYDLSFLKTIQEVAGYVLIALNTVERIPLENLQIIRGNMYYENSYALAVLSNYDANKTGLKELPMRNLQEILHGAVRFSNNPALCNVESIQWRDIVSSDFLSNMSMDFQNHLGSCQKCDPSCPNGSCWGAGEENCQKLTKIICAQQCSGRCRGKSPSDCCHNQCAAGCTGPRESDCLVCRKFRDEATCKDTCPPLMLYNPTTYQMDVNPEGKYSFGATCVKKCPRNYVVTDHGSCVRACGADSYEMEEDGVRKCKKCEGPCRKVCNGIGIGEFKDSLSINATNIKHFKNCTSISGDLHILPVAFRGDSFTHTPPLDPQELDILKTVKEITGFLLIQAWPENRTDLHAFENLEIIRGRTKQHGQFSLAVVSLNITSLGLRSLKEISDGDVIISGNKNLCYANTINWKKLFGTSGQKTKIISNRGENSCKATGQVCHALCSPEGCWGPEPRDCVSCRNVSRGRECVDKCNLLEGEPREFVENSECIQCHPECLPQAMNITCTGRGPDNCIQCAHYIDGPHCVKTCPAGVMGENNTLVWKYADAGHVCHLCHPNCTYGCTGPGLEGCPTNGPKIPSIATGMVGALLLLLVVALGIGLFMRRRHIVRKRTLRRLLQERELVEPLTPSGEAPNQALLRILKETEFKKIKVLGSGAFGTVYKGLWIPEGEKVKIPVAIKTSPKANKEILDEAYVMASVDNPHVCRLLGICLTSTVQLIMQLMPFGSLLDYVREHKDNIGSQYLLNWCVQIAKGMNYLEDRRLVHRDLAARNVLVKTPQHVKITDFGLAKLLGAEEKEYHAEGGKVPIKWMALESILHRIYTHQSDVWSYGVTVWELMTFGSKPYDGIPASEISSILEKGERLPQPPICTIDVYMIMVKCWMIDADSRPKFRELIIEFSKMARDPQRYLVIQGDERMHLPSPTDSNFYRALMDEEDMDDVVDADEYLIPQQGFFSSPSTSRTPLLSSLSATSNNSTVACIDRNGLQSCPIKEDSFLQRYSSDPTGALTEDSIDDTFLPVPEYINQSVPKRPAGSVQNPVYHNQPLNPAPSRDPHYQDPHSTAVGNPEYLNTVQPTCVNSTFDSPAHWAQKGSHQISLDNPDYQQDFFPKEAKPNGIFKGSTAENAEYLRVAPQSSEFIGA
# Sequence of EGFR L858R/T790M/C797S (P00533 25-1210 T790M/C797S/L858R): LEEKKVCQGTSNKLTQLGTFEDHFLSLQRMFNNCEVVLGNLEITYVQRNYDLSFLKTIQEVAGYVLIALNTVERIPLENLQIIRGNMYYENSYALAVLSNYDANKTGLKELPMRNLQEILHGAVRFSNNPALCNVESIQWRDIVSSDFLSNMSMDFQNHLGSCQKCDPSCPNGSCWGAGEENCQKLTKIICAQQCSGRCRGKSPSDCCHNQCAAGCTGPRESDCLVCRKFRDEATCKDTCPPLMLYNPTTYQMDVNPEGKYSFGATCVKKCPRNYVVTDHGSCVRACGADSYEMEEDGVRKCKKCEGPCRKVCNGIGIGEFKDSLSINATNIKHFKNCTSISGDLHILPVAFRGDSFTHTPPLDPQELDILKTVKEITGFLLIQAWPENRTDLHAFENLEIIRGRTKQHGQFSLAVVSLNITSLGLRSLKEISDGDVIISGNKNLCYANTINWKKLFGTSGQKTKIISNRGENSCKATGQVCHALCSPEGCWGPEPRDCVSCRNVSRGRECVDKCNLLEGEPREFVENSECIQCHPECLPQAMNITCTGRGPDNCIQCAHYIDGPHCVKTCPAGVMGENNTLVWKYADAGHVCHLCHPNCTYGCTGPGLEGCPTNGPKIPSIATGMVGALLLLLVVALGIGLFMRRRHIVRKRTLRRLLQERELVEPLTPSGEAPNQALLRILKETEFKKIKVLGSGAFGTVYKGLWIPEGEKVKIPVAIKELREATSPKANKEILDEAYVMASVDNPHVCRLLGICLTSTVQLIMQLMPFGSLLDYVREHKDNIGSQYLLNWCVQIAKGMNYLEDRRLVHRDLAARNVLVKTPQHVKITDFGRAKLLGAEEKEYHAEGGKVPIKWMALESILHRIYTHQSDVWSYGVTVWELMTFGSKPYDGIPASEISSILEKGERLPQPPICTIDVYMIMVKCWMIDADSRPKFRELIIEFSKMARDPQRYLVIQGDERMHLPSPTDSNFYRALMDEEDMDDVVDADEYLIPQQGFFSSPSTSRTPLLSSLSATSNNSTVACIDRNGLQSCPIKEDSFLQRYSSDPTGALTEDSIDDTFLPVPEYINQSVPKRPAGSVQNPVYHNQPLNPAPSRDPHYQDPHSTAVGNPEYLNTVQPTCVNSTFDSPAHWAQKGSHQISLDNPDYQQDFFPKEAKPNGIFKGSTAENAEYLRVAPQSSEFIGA
# Sequence of EGFR L858R/C797S (P00533 25-1210 C797S/L858R): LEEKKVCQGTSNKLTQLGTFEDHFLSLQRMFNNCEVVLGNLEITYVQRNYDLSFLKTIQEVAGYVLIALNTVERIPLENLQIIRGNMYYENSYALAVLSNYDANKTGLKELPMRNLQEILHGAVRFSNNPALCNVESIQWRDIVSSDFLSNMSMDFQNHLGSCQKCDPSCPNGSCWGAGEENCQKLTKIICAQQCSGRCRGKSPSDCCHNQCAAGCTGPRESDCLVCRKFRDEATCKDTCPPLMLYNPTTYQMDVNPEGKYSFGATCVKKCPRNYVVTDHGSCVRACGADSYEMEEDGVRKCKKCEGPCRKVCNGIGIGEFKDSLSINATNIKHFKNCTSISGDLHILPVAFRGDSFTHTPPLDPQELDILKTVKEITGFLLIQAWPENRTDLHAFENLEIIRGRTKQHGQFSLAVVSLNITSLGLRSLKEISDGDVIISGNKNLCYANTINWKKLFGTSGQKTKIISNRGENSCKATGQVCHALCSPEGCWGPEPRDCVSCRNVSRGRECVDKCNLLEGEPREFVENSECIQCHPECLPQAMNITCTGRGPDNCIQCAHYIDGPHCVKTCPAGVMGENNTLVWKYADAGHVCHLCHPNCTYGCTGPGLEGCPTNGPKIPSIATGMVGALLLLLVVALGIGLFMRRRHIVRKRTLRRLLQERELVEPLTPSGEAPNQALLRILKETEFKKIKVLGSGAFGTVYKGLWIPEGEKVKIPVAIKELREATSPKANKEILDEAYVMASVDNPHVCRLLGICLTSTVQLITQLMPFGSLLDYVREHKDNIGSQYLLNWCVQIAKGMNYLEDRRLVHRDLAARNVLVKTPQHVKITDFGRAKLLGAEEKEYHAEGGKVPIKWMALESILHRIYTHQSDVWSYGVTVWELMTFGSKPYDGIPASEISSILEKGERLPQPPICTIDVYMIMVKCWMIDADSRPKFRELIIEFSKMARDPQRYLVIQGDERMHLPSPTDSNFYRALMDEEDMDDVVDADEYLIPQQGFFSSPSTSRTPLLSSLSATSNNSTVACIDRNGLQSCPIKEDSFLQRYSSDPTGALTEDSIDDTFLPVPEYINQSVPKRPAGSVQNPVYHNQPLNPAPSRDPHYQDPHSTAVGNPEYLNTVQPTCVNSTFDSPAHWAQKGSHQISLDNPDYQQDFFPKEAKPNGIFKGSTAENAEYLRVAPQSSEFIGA
IC50 (EGFR wildtype; [1]),IC50 (EGFR wildtype; [2]),IC50 (EGFR L858R/C797S; [3]),IC50 (EGFR L858R/C797S; [4]),IC50 (EGFR L858R/T790M/C797S; [5]),IC50 (EGFR L858R/T790M/C797S; [6]),IC50 (EGFR del19/C797S; [7]),IC50 (EGFR del19/C797S; [8]),IC50 (EGFR del19/T790M/C797S; [9]),IC50 (EGFR del19/T790M/C797S; [10]),Compound
> 10000 nM,7.1 nM,17.7 nM,7.9 nM,3 nM,1 nM,4.2 nM,3.2 nM,2 nM,–,"C[C@]1(O)CC[C@@H](Nc2cc(Nc3ccnc(-c4cnn(S(=O)(=O)C5CC5)c4)n3)ncc2-c2ccc(N3CCC(F)(F)CC3)cn2)CC1 [Example 47, (1s,4s)-4-((6′-((2-(1-(Cyclopropylsulfonyl)-1H-pyrazol-4-yl)pyrimidin-4-yl)amino)-5-(4,4-difluoropiperidin-1-yl)-[2,3′-bipyridin]-4′-yl)amino)-1-methylcyclohexan-1-ol]"
> 10000 nM,24.7 nM,83.3 nM,14.1 nM,2.1 nM,0.3 nM,5.8 nM,–,0.5 nM,0.6 nM,"C[C@]1(O)CC[C@@H](Nc2cc(Nc3ccnc(-c4cnn(S(=O)(=O)C5CC5)c4)n3)ncc2-c2cc(N3CCOCC3)ccn2)CC1 [Example 48, (1s,4s)-4-((6′-((2-(1-(Cyclopropylsulfonyl)-1H-pyrazol-4-yl)pyrimidin-4-yl)amino)-4-morpholino-[2,3′-bipyridin]-4′-yl)amino)-1-methylcyclohexan-1-ol]"
294 nM,0.5 nM,2.4 nM,0.3 nM,0.3 nM,0.1 nM,0.8 nM,0.5 nM,0.3 nM,0.3 nM,"C[C@]1(O)CC[C@@H](Nc2cc(Nc3ccnc(-c4cnn(S(=O)(=O)C5CC5)c4)n3)ncc2-c2ccc(N3CCC(O)CC3)cn2)CC1 [Example 49, 1-(6′-((2-(1-(Cyclopropylsulfonyl)-1H-pyrazol-4-yl)pyrimidin-4-yl)amino)-4′-(((1s,4s)-4-hydroxy-4-methylcyclohexyl)amino)-[2,3′-bipyridin]-5-yl) piperidin-4-ol]"
> 10000 nM,–,2.2 nM,0.4 nM,0.1 nM,0.1 nM,–,0.5 nM,0.3 nM,0.2 nM,"Cc1cc(-c2cnc(Nc3ccnc(-c4cnn(S(=O)(=O)C5CC5)c4)n3)cc2N[C@H]2CC[C@@](C)(O)CC2)nnc1C [Example 50, (1s,4s)-4-((2-((2-(1-(Cyclopropylsulfonyl)-1H-pyrazol-4-yl)pyrimidin-4-yl)amino)-5-(5,6-dimethylpyridazin-3-yl)pyridin-4-yl)amino)-1-methylcyclohexan-1-ol]"
> 10000 nM,–,16.7 nM,1 nM,0.6 nM,0.3 nM,10.6 nM,3.1 nM,0.8 nM,0.6 nM,"C[C@]1(O)CC[C@@H](Nc2cc(Nc3ccnc(-c4cnn(S(=O)(=O)C5CC5)c4)n3)ncc2-c2ccc(C(F)(F)F)nn2)CC1 [Example 51, (1s,4s)-4-((2-((2-(1-(Cyclopropylsulfonyl)-1H-pyrazol-4-yl)pyrimidin-4-yl)amino)-5-(6-(trifluoromethyl)pyridazin-3-yl)pyridin-4-yl)amino)-1-methylcyclohexan-1-ol]"
> 10000 nM,3 nM,–,0.6 nM,0.3 nM,0.1 nM,0.6 nM,0.5 nM,0.3 nM,0.5 nM,"Cc1ccc(-c2cnc(Nc3ccnc(-c4cnn(S(=O)(=O)C5CC5)c4)n3)cc2N[C@H]2CC[C@@](C)(O)CC2)nn1 [Example 52, (1s,4s)-4-((2-((2-(1-(Cyclopropylsulfonyl)-1H-pyrazol-4-yl)pyrimidin-4-yl)amino)-5-(6-methylpyridazin-3-yl)pyridin-4-yl)amino)-1-methylcyclohexan-1-ol]"
5840 nM,9.2 nM,7.3 nM,1.4 nM,5.1 nM,–,9.7 nM,5.6 nM,12.5 nM,11.4 nM,"C[C@]1(O)CC[C@@H](Nc2cc(Nc3ccnc(-c4cnn(S(=O)(=O)C5CC5)c4)n3)ncc2-c2ccc(N3CCCCC3)cn2)CC1 [Example 54, (1s,4s)-4-((6′-((2-(1-(Cyclopropylsulfonyl)-1H-pyrazol-4-yl)pyrimidin-4-yl)amino)-5-(piperidin-1-yl)-[2,3′-bipyridin]-4′-yl)amino)-1-methylcyclohexan-1-ol]"
754 nM,1.9 nM,1 nM,0.3 nM,0.4 nM,–,1.1 nM,0.5 nM,0.7 nM,1.7 nM,"CN1CCN(Cc2ccnc(-c3cnc(Nc4ccnc(-c5cnn(S(=O)(=O)C6CC6)c5)n4)cc3N[C@H]3CC[C@@](C)(O)CC3)c2)CC1 [Example 55, (1s,4s)-4-((6′-((2-(1-(Cyclopropylsulfonyl)-1H-pyrazol-4-yl)pyrimidin-4-yl)amino)-4-((4-methylpiperazin-1-yl)methyl)-[2,3′-bipyridin]-4′-yl)amino)-1-methylcyclohexan-1-ol]"
> 10000 nM,169 nM,122 nM,–,2.4 nM,–,8.8 nM,5.9 nM,–,1.4 nM,"COc1cnc(-c2cnc(Nc3ccnc(-c4cnn(S(=O)(=O)C5CC5)c4)n3)cc2N[C@H]2CC[C@@](C)(O)CC2)cn1 [Example 56, (1s,4s)-4-((2-((2-(1-(Cyclopropylsulfonyl)-1H-pyrazol-4-yl)pyrimidin-4-yl)amino)-5-(5-methoxypyrazin-2-yl)pyridin-4-yl)amino)-1-methylcyclohexan-1-ol]"
636 nM,4.8 nM,4.5 nM,0.7 nM,1 nM,–,1.7 nM,2 nM,–,1.7 nM,"O=S(=O)(C1CC1)n1cc(-c2nccc(Nc3cc(NC4CCC(CO)CC4)c(-c4ccc(N5CCOCC5)cn4)cn3)n2)cn1 (centres unmarked) [Example 57, ((1s,4s)-4-((6′-((2-(1-(Cyclopropylsulfonyl)-1H-pyrazol-4-yl)pyrimidin-4-yl)amino)-5-morpholino-[2,3′-bipyridin]-4′-yl)amino)cyclohexyl)methanol]"
> 10000 nM,97.7 nM,56.4 nM,1.7 nM,1.1 nM,–,7.2 nM,8 nM,–,1.1 nM,"CN1CCN(c2ccnc(-c3cnc(Nc4ccnc(-c5cnn(S(=O)(=O)C6CC6)c5)n4)cc3N[C@H]3CC[C@@](C)(O)CC3)c2)CC1 [Example 58, (1s,4s)-4-((6′-((2-(1-(Cyclopropylsulfonyl)-1H-pyrazol-4-yl)pyrimidin-4-yl)amino)-4-(4-methylpiperazin-1-yl)-[2,3′-bipyridin]-4′-yl)amino)-1-methylcyclohexan-1-ol]"
> 10000 nM,14.8 nM,7.4 nM,1 nM,0.7 nM,0.5 nM,0.9 nM,0.6 nM,0.3 nM,0.4 nM,"Cc1cnc(-c2cnc(Nc3ccnc(-c4cnn(S(=O)(=O)C5CC5)c4)n3)cc2N[C@H]2CC[C@@](C)(O)CC2)cn1 [Example 59, (1s,4s)-4-((2-((2-(1-(Cyclopropylsulfonyl)-1H-pyrazol-4-yl)pyrimidin-4-yl)amino)-5-(5-methylpyrazin-2-yl)pyridin-4-yl)amino)-1-methylcyclohexan-1-ol]"
> 10000 nM,6.8 nM,4.2 nM,0.4 nM,0.4 nM,0.2 nM,0.5 nM,0.4 nM,0.2 nM,0.2 nM,"C[C@]1(O)CC[C@@H](Nc2cc(Nc3ccnc(-c4cnn(S(=O)(=O)C5CC5)c4)n3)ncc2-c2cnc(CO)cn2)CC1 [Example 60, (1s,4s)-4-((2-((2-(1-(Cyclopropylsulfonyl)-1H-pyrazol-4-yl)pyrimidin-4-yl)amino)-5-(5-(hydroxymethyl)pyrazin-2-yl)pyridin-4-yl)amino)-1-methylcyclohexan-1-ol]"
3940 nM,–,1.8 nM,–,0.2 nM,–,0.4 nM,–,–,0.2 nM,"C[C@]1(O)CC[C@@H](Nc2cc(Nc3ccnc(-c4cnn(S(=O)(=O)C5CC5)c4)n3)ncc2-c2cc(CN3CCOCC3)ccn2)CC1 [Example 61, (1s,4s)-4-((6′-((2-(1-(Cyclopropylsulfonyl)-1H-pyrazol-4-yl)pyrimidin-4-yl)amino)-4-(morpholinomethyl)-[2,3′-bipyridin]-4′-yl)amino)-1-methylcyclohexan-1-ol]"
745 nM,–,0.9 nM,–,0.1 nM,–,0.2 nM,–,–,0.1 nM,"CN1CCN(Cc2cnc(-c3cnc(Nc4ccnc(-c5cnn(S(=O)(=O)C6CC6)c5)n4)cc3N[C@H]3CC[C@@](C)(O)CC3)cn2)CC1 [Example 62, (1s,4s)-4-((2-((2-(1-(Cyclopropylsulfonyl)-1H-pyrazol-4-yl)pyrimidin-4-yl)amino)-5-(5-((4-methylpiperazin-1-yl)methyl)pyrazin-2-yl)pyridin-4-yl)amino)-1-methylcyclohexan-1-ol]"
